Measurements as given in patent US20240196932A1, “NOVEL USE” (DSM IP Assets B.V., priority 2021, published 2024).

System: rumen liquor
Assay: In vitro test for methane production (modified Hohenheim Forage value Test, HFT)
Assay type: cell-based
Conditions: for Total methane change [% vs. control]: TMR feed, 8 hours at 39° C, average of four to eight experiments
Procedure: In vitro test for methane production: A modified version of the “Hohenheim Forage value Test (HFT)” was used for testing the effect of specific compounds on the rumen functions mimicked by this in-vitro system.
Principle: Feed is gadded into a syringe with a composition of rumen liquor and an appropriate mixture of buffers. The solution is incubated at 39° C. After 8 hours the quantity (and composition) of gas phase produced is measured and put into a formula for conversion.
Sample weighing: The feed stuff (i.e. TMR (44% concentrate, 6% hay, 37% maize silage and 13% grass silage) is sieved to 1 mm and weighed exactly into 64 syringes. 4 of these syringes are the substrate controls, which display the gas production without the effect of the tested compounds. The remaining syringes contain the test substances, by groups of 4 syringes.
The components are mixed in a Woulff bottle in following order: • 711 ml water • 0.18 ml trace element solution • 355.5 ml buffer solution • 355.5 ml mass element solution • The completed solution is warmed up to 39° C.followed by the addition of 1.83 ml sodium salt solution and the addition of reduction solution at 36° C. The rumen liquor is added, when the indicator turns colourless.
Extraction of the rumen liquor: 750 ml of rumen liquor are added to approximately 1,400 ml of medium solution under continued agitation and CO2-gassing.
Filling the syringes, incubation and determining gas volumes and VFA values: The diluted rumen fluid (24 ml) is added to the glass syringe. The syringes are then incubated for 8 hours at 39° C.under gentle agitation. After 8 hours, the volume of gas produced is measured, and the percentage of methane in the gas phase is determined by gas chromatography.
The food fermented was artificial TMR (44% concentrate, 6% hay, 37% maize silage and 13% grass silage). Gossypol was obtained from Sigma-Aldrich (G8761), and used at a concentration as outlined in table 1. 3-Nitrooxy-propanol (3-NOP) was used at the concentration as outlined in table 1.

Cc1cc2c(C(C)C)c(O)c(O)c(C=O)c2c(O)c1-c1c(C)cc2c(C(C)C)c(O)c(O)c(C=O)c2c1O (racemic) [gossypol, Gossypol]
Total methane change [% vs. control] (gossypol 5 μM, listed as prints 2 g/animal/day): −1 % vs. control | Total methane change [% vs. control] (gossypol 10 μM, listed as prints 4.3 g/animal/day): −11 % vs. control | Total methane change [% vs. control] (gossypol 20 μM, listed as prints 8.6 g/animal/day): −15 % vs. control | Total methane change [% vs. control] (gossypol 100 μM, listed as prints 17.3 g/animal/day): −69 % vs. control | methane reduction (gossypol concentrations of at least 7.5 g gossypol/animal/day): Clear effects
